In brackets after ≈: the same amount, converted by molar mass. Like-named read-outs stand apart in the source and are kept apart here.
Assays:
Bacteroides gracilis = assay: Agar dilution MIC; type: cell-based, Bacteroides gracilis (Campylobacter gracilis); conditions: Campylobacter gracilis
[1] = test system: Peptostreptococcus asaccharolyticus; assay: Agar dilution MIC; type: cell-based
Veillonella spp. = assay: Agar dilution MIC; type: cell-based
peptostreptococci = conditions: cited from earlier work
B. thetaiotaomicron = conditions: Goldstein, et al.; cited from earlier work
[2] = test system: Prevotella denticola/loeschii group; assay: Agar dilution MIC; type: cell-based
[3] = test system: Prevotella buccae-oris group; assay: Agar dilution MIC; type: cell-based
[4] = test system: certain Porphyromonas strains; conditions: Goldstein, et al.; cited from earlier work
B. ovatus = conditions: Goldstein, et al.; cited from earlier work
[5] = test system: Porphyromonas asaccharolyticus; assay: Agar dilution MIC; type: cell-based, Porphyromonas asaccharolytica
[6] = test system: Anaerobiospirillum succiniciproducens; assay: Agar dilution MIC; type: cell-based
Fusobacterium russii = assay: Agar dilution MIC; type: cell-based
[7] = test system: Clostridium clostridioforme; assay: Agar dilution MIC; type: cell-based
[8] = test system: Peptostreptococcus micros; assay: Agar dilution MIC; type: cell-based
Porphyromonas canoris = assay: Agar dilution MIC; type: cell-based
Clostridium inocuum = assay: Agar dilution MIC; type: cell-based, Clostridium innocuum
Bacteroides tectum = assay: Agar dilution MIC; type: cell-based
[9] = test system: Prevotella heparinolytica; assay: Agar dilution MIC; type: cell-based
Clostridium ramosum = assay: Agar dilution MIC; type: cell-based
[10] = Marco, et al., 18 strains of peptostreptococci
[11] = Clostridium, 11 isolates, read-out: Minimal Inhibitory Concentration 90% (MIC90)
[12] = Clostridium, read-out: Minimal Inhibitory Concentration 50% (MIC50)

Question: Which MIC90 (Bacteroides gracilis; 11 isolates, read-out: Minimal Inhibitory Concentration 90% (MIC90)) does the source give for `CO/N=C1\CN(c2nc3c(cc2F)c(=O)c(C(=O)O)cn3C2CC2)CC1CN` (racemic) [Gemifloxacin, (R,S)-7-(3-aminomethyl-4-methoxyiminopyrrolidin-1-yl)-1-cyclopropyl-6-fluoro-4-oxo-1,4-dihydro-1,8-naphthyridine-3-carboxylic acid] here?
Answer: ≤ 2 µg/mL

Question: What about the MIC50 (Bacteroides gracilis; read-out: Minimal Inhibitory Concentration 50% (MIC50)) of the same molecule?
Answer: ≤ 0.015 µg/mL

Question: And the “Minimal Inhibitory Concentration Range” value ([1]; 11 isolates)?
Answer: 0.125 to 0.25 µg/mL

Question: What about the MIC50 ([1]; Peptoniphilus asaccharolyticus, read-out: Minimal Inhibitory Concentration 50% (MIC50)) of the same molecule?
Answer: 0.25 µg/mL (≈ 0.642 µM)

Question: And the MIC90 ([1]; Peptoniphilus asaccharolyticus, 11 isolates, read-out: Minimal Inhibitory Concentration 90% (MIC90))?
Answer: 0.25 µg/mL (≈ 0.642 µM)

Question: What about the “Minimal Inhibitory Concentration 90% (MIC90)” value (Veillonella spp.; 24 isolates) of the same molecule?
Answer: 8 µg/mL

Question: And the MIC90 (Veillonella spp.; Veillonella, 24 isolates, read-out: Minimal Inhibitory Concentration 90% (MIC90))?
Answer: ≥ 4 µg/mL

Question: And the MIC50 (Veillonella spp.; Veillonella, read-out: Minimal Inhibitory Concentration 50% (MIC50))?
Answer: 1 µg/mL (≈ 2.57 µM)

Question: And the MIC90 (peptostreptococci; Cormicon and Jones, 10 strains of peptostreptococci)?
Answer: 2 µg/mL (≈ 5.14 µM)

Question: What about the MIC90 (peptostreptococci; [10]) of the same molecule?
Answer: 2 µg/mL (≈ 5.14 µM)

Question: What about the MIC range (peptostreptococci; [10]) of the same molecule?
Answer: 0.25 to 8 µg/mL

Question: What about the “activity” value (B. thetaiotaomicron) of the same molecule?
Answer: only limited activity

Question: And the “Minimal Inhibitory Concentration Range” value ([2]; 6 isolates)?
Answer: 0.25 to 8 µg/mL

Question: And the MIC50 ([2]; Prevotella denticola, read-out: Minimal Inhibitory Concentration 50% (MIC50))?
Answer: 0.5 µg/mL (≈ 1.28 µM)

Question: What about the “Minimal Inhibitory Concentration 90% (MIC90)” value ([3]; 22 isolates) of the same molecule?
Answer: 2 µg/mL

Question: And the “Minimal Inhibitory Concentration Range” value ([3]; 22 isolates)?
Answer: 0.5 to 8 µg/mL

Question: What about the MIC90 ([3]; Prevotella, 22 isolates, read-out: Minimal Inhibitory Concentration 90% (MIC90)) of the same molecule?
Answer: ≤ 2 µg/mL

Question: What about the MIC50 ([3]; Prevotella, read-out: Minimal Inhibitory Concentration 50% (MIC50)) of the same molecule?
Answer: 2 µg/mL (≈ 5.14 µM)

Question: And the “activity” value [4]?
Answer: showed activity

Question: And the “activity” value (B. ovatus)?
Answer: only limited activity

Question: And the “Minimal Inhibitory Concentration Range” value ([5]; 11 isolates)?
Answer: 0.06 to 0.125 µg/mL

Question: What about the MIC50 ([5]; Porphyromonas, read-out: Minimal Inhibitory Concentration 50% (MIC50)) of the same molecule?
Answer: 0.06 µg/mL (≈ 0.154 µM)

Question: What about the MIC90 ([5]; Porphyromonas, 11 isolates, read-out: Minimal Inhibitory Concentration 90% (MIC90)) of the same molecule?
Answer: 0.125 µg/mL (≈ 0.321 µM)

Question: What about the “Minimal Inhibitory Concentration Range” value ([6]; 3 isolates) of the same molecule?
Answer: 0.5 to 2 µg/mL

Question: And the MIC50 ([6]; Anaerobiospirillum succiniciproducens, read-out: Minimal Inhibitory Concentration 50% (MIC50))?
Answer: 1 µg/mL (≈ 2.57 µM)

Question: What about the “Minimal Inhibitory Concentration 90% (MIC90)” value (Fusobacterium russii) of the same molecule?
Answer: >8 µg/mL

Question: What about the MIC50 (Fusobacterium russii; Fusobacterium russii, read-out: Minimal Inhibitory Concentration 50% (MIC50)) of the same molecule?
Answer: > 8 µg/mL

Question: What about the MIC90 (Fusobacterium russii; Fusobacterium russii, read-out: Minimal Inhibitory Concentration 90% (MIC90)) of the same molecule?
Answer: ≥ 4 µg/mL

Question: And the “susceptibility to gemifloxacin” value [7]?
Answer: relatively susceptible

Question: And the “Minimal Inhibitory Concentration 90% (MIC90)” value ([7]; 11 isolates)?
Answer: 1 µg/mL

Question: And the MIC90 [7, 11]?
Answer: ≤ 2 µg/mL

Question: And the MIC50 [7, 12]?
Answer: 0.5 µg/mL (≈ 1.28 µM)

Question: What about the “Minimal Inhibitory Concentration Range” value ([8]; 12 isolates) of the same molecule?
Answer: 0.06 to 0.125 µg/mL

Question: What about the MIC50 ([8]; Parvimonas micra, read-out: Minimal Inhibitory Concentration 50% (MIC50)) of the same molecule?
Answer: 0.06 µg/mL (≈ 0.154 µM)

Question: What about the MIC90 ([8]; Parvimonas micra, 12 isolates, read-out: Minimal Inhibitory Concentration 90% (MIC90)) of the same molecule?
Answer: 0.06 µg/mL (≈ 0.154 µM)

Question: And the “Minimal Inhibitory Concentration Range” value (Porphyromonas canoris; 10 isolates)?
Answer: 0.06 to 0.25 µg/mL

Question: And the MIC50 (Porphyromonas canoris; Porphyromonas canoris, read-out: Minimal Inhibitory Concentration 50% (MIC50))?
Answer: 0.25 µg/mL (≈ 0.642 µM)

Question: What about the MIC90 (Porphyromonas canoris; Porphyromonas canoris, 10 isolates, read-out: Minimal Inhibitory Concentration 90% (MIC90)) of the same molecule?
Answer: 0.25 µg/mL (≈ 0.642 µM)

Question: And the “susceptibility to gemifloxacin” value (Clostridium inocuum)?
Answer: relatively susceptible

Question: And the “Minimal Inhibitory Concentration 90% (MIC90)” value (Clostridium inocuum; 11 isolates)?
Answer: 2 µg/mL

Question: And the MIC90 (Clostridium inocuum; [11])?
Answer: ≤ 2 µg/mL

Question: And the MIC50 (Clostridium inocuum; [12])?
Answer: 0.25 µg/mL (≈ 0.642 µM)

Question: What about the “Minimal Inhibitory Concentration 90% (MIC90)” value (Bacteroides tectum; 22 isolates) of the same molecule?
Answer: 0.25 µg/mL

Question: And the “Minimal Inhibitory Concentration Range” value (Bacteroides tectum; 22 isolates)?
Answer: 0.06 to 8 µg/mL

Question: What about the “Minimal Inhibitory Concentration 90% (MIC90)” value (Bacteroides tectum; 22 isolates, listed as gemifloxacin) of the same molecule?
Answer: ≤ 2 µg/mL

Question: And the MIC50 (Bacteroides tectum; Bacteroides pyogenes, read-out: Minimal Inhibitory Concentration 50% (MIC50))?
Answer: 0.125 µg/mL (≈ 0.321 µM)

Question: And the “Minimal Inhibitory Concentration 90% (MIC90)” value ([9]; 16 isolates)?
Answer: 0.5 µg/mL

Question: What about the “Minimal Inhibitory Concentration Range” value ([9]; 16 isolates) of the same molecule?
Answer: 0.25 to 0.5 µg/mL

Question: What about the “Minimal Inhibitory Concentration 90% (MIC90)” value ([9]; 16 isolates, listed as gemifloxacin) of the same molecule?
Answer: ≤ 2 µg/mL

Question: And the MIC50 ([9]; Prevotella heparinolytica, read-out: Minimal Inhibitory Concentration 50% (MIC50))?
Answer: 0.5 µg/mL (≈ 1.28 µM)

Question: What about the “Minimal Inhibitory Concentration Range” value (Clostridium ramosum; 10 isolates) of the same molecule?
Answer: 0.125 to 2 µg/mL

Question: And the MIC50 (Clostridium ramosum; Thomasclavelia ramosa, read-out: Minimal Inhibitory Concentration 50% (MIC50))?
Answer: 0.25 µg/mL (≈ 0.642 µM)

Question: And the MIC90 (Clostridium ramosum; Thomasclavelia ramosa, 10 isolates, read-out: Minimal Inhibitory Concentration 90% (MIC90))?
Answer: 1 µg/mL (≈ 2.57 µM)

— patent US6455540B1, “Methods of use of quinolone compounds against anaerobic pathogenic bacteria” (priority 1999, dated 2002)
